Earlier results on one substance are cited in patent US20170096549A1, “MULTIVALENT CATION FORMULATIONS OF PARTIALLY DESULFATED HEPARINS” (Cantex Pharmaceuticals, Inc., priority 2014, published 2017).

Data set [1] deals with Xa (Homo sapiens, UniProt P00742).
Data set [2] relates to anti-coagulant activity.
In data set [3] the target is IIa (Homo sapiens, UniProt P00734+P01008).
In data set [4] the target is anti-thrombin III (Homo sapiens, UniProt P01008).

Like-named read-outs stand apart in the source and are kept apart here.

Sequence of anti-thrombin III (P01008 33-464, species assumed): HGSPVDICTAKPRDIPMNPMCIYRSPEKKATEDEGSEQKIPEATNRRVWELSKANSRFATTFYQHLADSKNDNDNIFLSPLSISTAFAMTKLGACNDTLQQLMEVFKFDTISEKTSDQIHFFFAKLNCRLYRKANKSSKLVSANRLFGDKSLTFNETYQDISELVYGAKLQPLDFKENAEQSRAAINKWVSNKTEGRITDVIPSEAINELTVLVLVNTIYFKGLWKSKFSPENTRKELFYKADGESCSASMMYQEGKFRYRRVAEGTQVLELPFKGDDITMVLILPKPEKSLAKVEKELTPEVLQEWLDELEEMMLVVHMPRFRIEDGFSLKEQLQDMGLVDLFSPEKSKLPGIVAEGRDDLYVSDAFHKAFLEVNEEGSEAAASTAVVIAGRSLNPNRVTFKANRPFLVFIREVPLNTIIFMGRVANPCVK
Sequence of Xa (P01008 33-464 partner): as the sequence (P01008 33-464, species assumed) above
Sequence of Xa (P00742 235-488 limits assumed): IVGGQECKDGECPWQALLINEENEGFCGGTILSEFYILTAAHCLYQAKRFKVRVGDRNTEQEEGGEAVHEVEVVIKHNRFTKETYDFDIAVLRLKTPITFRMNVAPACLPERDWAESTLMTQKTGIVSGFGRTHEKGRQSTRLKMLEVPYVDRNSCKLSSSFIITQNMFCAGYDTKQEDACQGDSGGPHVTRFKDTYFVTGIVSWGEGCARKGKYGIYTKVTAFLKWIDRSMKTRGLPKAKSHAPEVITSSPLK

As a reminder, the Kd is the equilibrium constant for the complex coming apart. Turning to Unfractionated heparin, the anti-Xa activity in data set [1] is on record as 165-190 U/mg. The “anti-coagulant activity in the USP anti-coagulant assay” value in data set [2] is reported as 165-190 U/mg. The anti-IIa activity in data set [3] is recorded as 165-190 U/mg. In addition, the “Kd for anti-thrombin III” value in data set [4] was around 22 µg/mL. The Kd was 1560 nM in data set [4] (listed as heparin) and around 1560 nM in data set [4] (listed as unfractionated heparin).
